In publication PMC9945865, “Anticancer evaluation of new organometallic ruthenium(II) flavone complexes” (RSC Medicinal Chemistry, 2022):

Tests used:
[1] = Temperature dependent UV-vis stability of the complexes; format: physicochemical; design: key to Δλ260: change in absorbance at 260 nm (absorbance units); conditions: for λ260 (absorbance at 260 nm) / UV-vis stability profile: 0.1% DMSO/ddH2O; for UV-vis stability profile: temperature increments 20-80 °C, 6 h time interval
Method: Wavelength (nm) Wavelength (nm)
Figure 3. Temperature dependant UV-VIS spectra of (A) 1Ru and (B) 2Ru in 0.1%DMSO/ddH2O solution recorded
over a 6 h time interval.
Table 1. λ260a and Δ λ260b of complexes 1Ru and 2Ru at 20 °C – 80 °C

[2] = tested on: MDA-MB-231; assay: Cell viability, 72 h MTT assay; format: cell-based, human; conditions: MDA-MB-231, 72 h MTT, mean ± SEM, n = 3
Method: (§1) The unique chemical features and coordination geometries of metal ions can add several additional binding interactions that can potentially enhance their anticancer properties for example by allowing intercalation and exploitation of their redox potential.[24] […] In that context, coordination of derivative (2) with a Ru(II) metal ligand is a promising approach to further improve its antiproliferative activity.
(§2) MCF-7 and MDA-MB-231 cells were seeded at a density of 4 × 10^4 and 2 × 10^4 cells per mL, respectively, into 96 well plates and incubated to allow the attachment for 24 h. After 24 h, the cells were treated with one of the synthesised derivatives at range of concentrations (0–100 μM) for 67 h. After 67 h, 20 μL of MTT (5 mg mL^−1) solution in PBS was added to each well and the cells were incubated for 5 h. The purple crystals formed were dissolved in 100 μL of DMSO and the plates were read at 560 nm using a SPECTRA max UV spectrometer (Bio-Rad). The data represented are the mean of the three individual experiments.

[3] = tested on: MCF-7; assay: Cell viability, 72 h MTT assay; format: cell-based, human; conditions: MCF-7, 72 h MTT, mean ± SEM, n = 3
Method: as §1, §2

[4] = tested on: MDA-MB-231; assay: Wound healing (migration) 24 h scratch assay; format: cell-based, human; conditions: for rise in compound 2's migration inhibition activity upon metal coordination: p < 0.05
Method: (§3) Malignant cell migration is essential for tumour invasion and metastasis.[1] Thus, the ability of the synthetic flavones (1 and 2) and their Ru(II) metal complexes (1Ru and 2Ru) to inhibit the migration of breast cancer cells (MCF-7 and MDA-MB-231) was assessed by an in vitro 24 h scratch assay. Low, sub-cytotoxic concentrations of 1, 10 and 20 μM were used in this evaluation.
(§4) MCF-7 or MDA-MB-231 cells were seeded in 12-well plates at 2 × 10^5 or 1 × 10^5 cells per mL, respectively, and cultured until 70–80% confluency. Afterwards, they were serum-starved (0% serum) for 24 h to inactivate the cell proliferation. A scratch was performed on the cell monolayers using a 200 μL pipette tip. Cells were then washed twice with PBS and treated with complete medium and one of the synthesized derivatives at 1, 10 or 20 μM. […] Images of the scratches were taken immediately after performing the scratch (t = 0 h) and at 24 h (t = 24 h). The area not covered by the cells was quantified using ImageJ software. % of wound closure was calculated using the following equation:100 × ((Area of scratch at t0 − Area of scratch at t24)/Area of scratch at t0)

[5] = tested on: MCF-7; assay: Wound healing (migration) 24 h scratch assay; format: cell-based, human
Method: as §3, §4

[6] = tested on: VEGF i-motif DNA; assay: I-motif DNA UV melting (thermal stability); format: binding, human; conditions: for Tm: VEGF i-motif with flavone at 1 : 1 ratio, 295 nm, free DNA 46 °C; for ΔTm: ΔTm = Tm (DNA-flavone) − Tm (DNA)
Text: (§5) The effect of this set of flavones on VEGF and c-myc was further evaluated via thermal stability measurements. Stabilizing/destabilizing the promotor i-motif structures is often reported to regulate expression of the corresponding genes, which for VEGF and c-myc could have detrimental effects on cancer growth and propagation.[48] As observed in Fig. 9, effects of the test flavones on the thermal stability of the VEGF and c-myc i-motif sequences were generally marginal and in agreement with λmax chromophoric shifts. […] Compound 1 destabilized VEGF i-motif in contrast to stabilizing the c-myc one. This mirrored the trend of a higher chromophoric shift observed for flavone 1 with VEGF i-motif sequence that also differed in pattern (hypochromic) from the shift witnessed with the c-myc sequence (hyperchromic). These findings could indicate higher selectivity of the 4-oxo derivative (1) towards VEGF i-motif based on an intercalative binding mode especially that hypochromic shifts are reported with DNA intercalation.[49,50] […] In this regard, the highest i-motif activity seen for the parent flavonoids was switched from VEGF to c-myc with compound 1 and vice versa with compound 2 upon Ru chelation. This emphasizes the key role of the interplay between the substitution at position 4 and metal complexation on the interaction with biological targets.
(§6) UV-visible absorbance measurements and DNA UV melting studies were performed on a Cary 300 C (Varian USA) UV-visible spectrophotometer. VEGF and c-myc i-motif DNA (5′-3′ sequences ([…]) and ([…]), respectively) were purchased from Sigma-Aldrich (Gillingham, UK) and used without further purification. Na cacodylate buffer (20 mM, pH 5.5) was used for both i-motifs. DNA concentrations were determined by measuring the absorbance at 260 nm after melting using the molar extinction coefficient supplied by the manufacturer. VEGF and c-myc i-motifs were prepared for experiments by diluting with buffer solution, annealed with or without the flavonoid at 95 °C for 5 min then gently cooled to room temperature. The stock solutions of the test compounds (20 mM) were prepared in 100% sterile DMSO. These stocks were then appropriately diluted with HPLC grade water and DMSO levels were maintained below 0.1% in the test concentrations.
(§7) UV-visible absorbance measurements and UV melting studies of either free i-motifs (VEGF or c-myc), free flavone (1, 1Ru, 2 or 2Ru) or both i-motif DNA and flavone (2 μM: 2 μM) were recorded using 1.0 cm matched quartz cuvettes. First spectra were recorded in the range of 200–500 nm to determine the relevant wavelength range were no peaks were observed above 320 nm. […] UV-visible absorbance was measured at 25 °C while melting curves were collected at a heating rate of 1 °C min^−1 from 20 to 90 °C. Tm was calculated by non-linear fitting of the sigmoidal curve obtained at 295 nm.

[7] = tested on: c-myc i-motif DNA; assay: I-motif DNA UV melting (thermal stability); format: binding, human; conditions: for Tm: c-myc i-motif with flavone at 1 : 1 ratio, 295 nm, free DNA 45 °C; for ΔTm: c-myc i-motif, 1 : 1 ratio, ΔTm = Tm (DNA-flavone) − Tm (DNA)
Text: as §5, §6, §7

For `Cc1ccc(C(C)C)cc1.O=c1cc(-c2ccc(Cl)cc2)oc2cc(O)cc([O-])c12.[Cl-].[Ru+2]` [1Ru, chlorido [(5-oxo-κO)-7-hydroxy-2-(4′-chlorophenyl)-4H-chromen-4-onato-κO] (η^6-p-cymene)ruthenium(II)], the Δλ260 ([1]; 20 °C (baseline)) was 0, the “λ260 (absorbance at 260 nm)” value ([1]; 20 °C) was 0.0435 and the Δλ260 ([1]; 40 °C minus 20 °C) was 0.00072. For the same compound, the “λ260 (absorbance at 260 nm)” value ([1]; 40 °C) was 0.04422, the Δλ260 ([1]; 60 °C minus 20 °C) was 0.00174 and the “λ260 (absorbance at 260 nm)” value ([1]; 60 °C) was 0.04525. The Δλ260 ([1]; 80 °C minus 20 °C) was 0.00388, the “λ260 (absorbance at 260 nm)” value ([1]; 80 °C) was 0.04738 and the UV-vis stability profile [1] was “sufficient stability”. For the same compound, the IC50 [2] was greater than 100 µM, the IC50 [3] was 66.2 ± 5 µM and the “effect on the migration” value ([4]; MDA-MB-231, 1, 10, 20 μM, 24 h) was “neither showed any effect”. The migration inhibition ([5]; MCF-7, 1 μM) was 50%, the migration inhibition ([5]; MCF-7, 10 μM) was 42% and the migration inhibition ([5]; MCF-7, 20 μM) was 41%. For the same compound, the Tm [6] was 47 °C, the ΔTm ([6]; VEGF i-motif, 1 : 1 ratio) was 1 °C and the Tm [7] was 48 °C. For the same compound, the ΔTm [7] was 3 °C.

For `Cc1ccc(C(C)C)cc1.[Cl-].[O-]c1cc(O)cc2oc(-c3ccc(Cl)cc3)cc(=S)c12.[Ru+2]` [2Ru, chlorido [(5-oxo-κO)-7-hydroxy-2-(4′-chlorophenyl)-4H-chromen-4-thionato-κO] (η^6-p-cymene)ruthenium(II)], the Δλ260 ([1]; 20 °C (baseline)) was 0, the “λ260 (absorbance at 260 nm)” value ([1]; 20 °C) was 0.03108 and the Δλ260 ([1]; 40 °C minus 20 °C) was 0.0013. For the same compound, the “λ260 (absorbance at 260 nm)” value ([1]; 40 °C) was 0.02973, the Δλ260 ([1]; 60 °C minus 20 °C) was 0.0021 and the “λ260 (absorbance at 260 nm)” value ([1]; 60 °C) was 0.02902. For the same compound, the Δλ260 ([1]; 80 °C minus 20 °C) was 0.0028, the “λ260 (absorbance at 260 nm)” value ([1]; 80 °C) was 0.02832 and the UV-vis stability profile [1] was “sufficient stability”. It also gave an IC50 [2] greater than 100 µM, an IC50 [3] greater than 100 µM and a migration inhibition ([4]; MDA-MB-231, 1 μM, 24 h) of 47%. The “rise in compound 2's migration inhibition activity upon metal coordination” value ([4]; MDA-MB-231, 1 μM) was 4%, the migration inhibition ([4]; MDA-MB-231, 10 μM, 24 h) was 44% and the migration inhibition ([4]; MDA-MB-231, 20 μM, 24 h) was 36%. The “rise in compound 2's migration inhibition activity upon metal coordination” value ([4]; MDA-MB-231, 20 μM) was 7%, the migration inhibition ([5]; MCF-7, 1 μM) was 52% and the migration inhibition ([5]; MCF-7, 10 μM) was 49%. For the same compound, the migration inhibition ([5]; MCF-7, 20 μM) was 55%, the Tm [6] was 42 °C and the “decrease in the i-motif's transition temperature (Tm)” value ([6]; VEGF i-motif, 1 : 1 ratio) was 4 °C. The ΔTm ([6]; VEGF i-motif, 1 : 1 ratio) was −4 °C, the Tm [7] was 44 °C and the ΔTm [7] was −1 °C.
